Structures can show the parent of a compound that is named as a salt.

The series can be described thus: RP, Waters ACQUITY Premier BEH C18, 100 × 2.1 mm, 1.7 µm, 40 °C, 0.3 to 0.4 mL/min, estimated dead time 0.73 min; A: water + 0.1% formic acid; B: acetonitrile + 0.1% formic acid; gradient (min/%B) 0/0.5 0.1/0.5 10/80 10.1/99.5 12/0.5 12.1/0.5 14.5/0.5. Particulars: stereoisomer not certain.
Turning to `Nc1ccn(C2OC(COP(=O)(O)O)C(O)C2O)c(=O)n1` (stereo not given) [CYTIDINE MONOPHOSPHATE], the LC retention time was 0.941 min.
Consider `O=S(=O)(O)Oc1ccccc1` [PHENOL SULFATE], for which the LC retention time was 1.17 min.
Turning to `O=c1c2cc(O)c(O)cc2oc2cc(O)c(C3OC(CO)C(O)C(O)C3O)c(O)c12` (stereo not given) [MANGIFERIN], the LC retention time is 3.75 min.
As for `CC(=O)NC(CC(N)=O)C(=O)O` (stereo not given) [N-ACETYLASPARAGINE], the LC retention time is 1.1 min.
The result for `CC(=O)NC(Cc1ccccc1)C(=O)O` (stereo not given) [N-ACETYLPHENYLALANINE] reads 5.18 min; that for `O=C(O)c1cc(O)cc(O)c1` [3,5-DIHYDROXYBENZOIC ACID], 2.21 min.
The result for `O=C(O)c1cccc(O)c1O` [2,3-DIHYDROXYBENZOATE] reads 4.71 min; that for `O=C1c2c(O)cccc2C(C2OC(CO)C(O)C(O)C2O)c2cc(CO)cc(O)c21` (stereo not given) [ALOIN], 5.1 min; that for `CC(C)=CCNc1ncnc2nc[nH]c12` [N6-(DELTA2-ISOPENTENYL)-ADENINE], 4.63 min.
The result for `Nc1nc2c(ncn2C2OC3COP(=O)(O)OC3C2O)c(=O)[nH]1` (stereo not given) [CYCLIC GMP] reads 3.35 min.
`CC(C)C(N)C(=O)O` (stereo not given) [VALINE]: the LC retention time was 1.21 min.
The result for `CC1OC(n2cnc3c(N)ncnc32)C(O)C1O` (stereo not given) [5'-DEOXYADENOSINE] reads 3.5 min; that for `OCC1OC(Oc2ccc3c(c2)OCC2c4cc5c(cc4OC32)OCO5)C(O)C(O)C1O` (stereo not given) [TRIFOLIRHIZIN], 4.35 min; that for `Cc1ccccc1C(=O)O` [2-METHYLBENZOIC ACID], 5.38 min.
Take `O=C(O)CCCCc1ccccc1` [5-PHENYLVALERIC ACID]: the LC retention time is 7.21 min.
The result for `CC(=CC(=O)O)C(=O)O` [2-METHYLMALEATE] reads 3.29 min.
The result for `Nc1ncnc2c1ncn2C1CC(O)C(COP(=O)(O)O)O1` (stereo not given) [DEOXYADENOSINE MONOPHOSPHATE] reads 2.07 min; that for `CC(CCC(=O)O)C1CCC2C3C(=O)CC4CC(O)CCC4(C)C3CCC12C` (stereo not given) [NUTRIACHOLIC ACID], 7.25 min.
The result for `CCCCCCC[C@@H](O)CC(=O)O` [(R)-3-HYDROXYDECANOIC ACID] reads 7.09 min; that for `O=c1[nH]c(=O)c2nccnc2[nH]1` [2,4-DIHYDROXYPTERIDINE], 3.08 min; that for `O=C(CCc1ccc(O)cc1)c1c(O)cc(O)cc1OC1OC(CO)C(O)C(O)C1O` (stereo not given) [PHLORIDZIN], 5.01 min.
Consider `OCCc1c[nH]c2ccccc12` [INDOLE-3-ETHANOL], for which the LC retention time was 5.81 min.
For `COc1ccc(C2CC(=O)c3c(O)cc(OC4OC(COC5OC(C)C(O)C(O)C5O)C(O)C(O)C4O)cc3O2)cc1O` (stereo not given) [HESPERIDINE], the LC retention time is 4.77 min.
In the case of `CC(CCC(=O)NCCS(=O)(=O)O)C1CCC2C3CCC4CC(O)CCC4(C)C3CCC12C` (stereo not given) [LITHOCHOLYLTAURINE], the LC retention time is 7.55 min.
The result for `O=c1c(-c2ccc(O)cc2)coc2cc(OC3OC(CO)C(O)C(O)C3O)cc(O)c12` (stereo not given) [GENISTIN] reads 4.57 min.
As for `O=c1oc2cc(O)ccc2c2oc3cc(O)ccc3c12` [COUMESTEROL], the LC retention time was 6.04 min.
As for `O=c1[nH]c(=O)c2ncn(C3OC(COP(=O)(O)O)C(O)C3O)c2[nH]1` (stereo not given) [XANTHOSINE-MONOPHOSPHATE], the LC retention time was 1.87 min.
The result for `O=c1ccc2ccc3occc3c2o1` [ANGELICIN] reads 6.41 min.
The result for `COc1ccc(O)c(C(=O)O)c1` [5-METHOXYSALICYLIC ACID] reads 5.46 min; that for `O=C(O)c1cc(O)c2c(c1)C(=O)c1cccc(O)c1C2=O` [RHEIN], 7.07 min.
As to `Cc1cn(C2OC(CO)C(O)C2O)c(=O)nc1N` (stereo not given) [5-METHYLCYTIDINE], the LC retention time is 2.36 min.
The result for `Oc1ccc(C=Cc2cc(O)cc(O)c2)cc1` [RESVERATROL] reads 5.3 min; that for `CCCCCCCCC=CCCCCCCCC(=O)O` [ELAIDATE], 10 min; that for `COc1cc2ccc(=O)oc2cc1OC` [SCOPARONE], 5.34 min.
The result for `O=C(O)C(O)c1ccc(O)c(O)c1` (stereo not given) [3,4 DIHYDROXYMANDELATE] reads 1.62 min; that for `COc1cc(CNC(=O)CCCCCCC(C)C)ccc1O` [DIHYDROCAPSAICIN], 7.49 min.
The result for `COc1cc(C=CC(=O)O)ccc1O` [FERULATE] reads 5.17 min.
Regarding `CCCCCCCCCCCCC(O)C(=O)O` (stereo not given) [2-HYDROXYMYRISTIC ACID], the LC retention time is 8.3 min.
The result for `CCCCCC(O)CC(=O)CCc1ccc(O)c(OC)c1` (stereo not given) [GINGEROL] reads 7.34 min.
Regarding `O=C(O)CCCCCCCCCC(=O)O` [UNDECANEDIOIC ACID], the LC retention time was 6.09 min.
The result for `O=c1cc(-c2ccc(O)cc2)oc2cc(OC3OC(CO)C(O)C(O)C3O)cc(O)c12` (stereo not given) [COSMOSIIN] reads 4.75 min.
With `Nc1c(O)cccc1C(=O)O` [3-HYDROXYANTHRANILATE], the LC retention time was 3.85 min.
The result for `Nc1ncnc2c1ncn2C1OC(CO)C2OP(=O)(O)OC21` (stereo not given) [ADENOSINE 2',3'-CYCLIC PHOSPHATE] reads 2.8 min; that for `NC(CCS)C(=O)O` (stereo not given) [HOMOCYSTEINE], 0.963 min; that for `Oc1cccc(O)c1O` [PYROGALLOL], 2.89 min.
The result for `CC(C=CC=C(C)C=CC1=C(C)C(=O)CCC1(C)C)=CC=CC=C(C)C=CC=C(C)C=CC1=C(C)C(=O)CCC1(C)C` [CANTHAXANTHIN] reads 11.3 min; that for `NC(=O)c1ccccc1O` [SALICYLAMIDE], 5.04 min; that for `O=c1cc(-c2ccccc2)oc2cc(O)cc(O)c12` [5,7-DIHYDROXYFLAVONE], 7.23 min.
The result for `Nc1ncnc2c1ncn2C1OC(CSCCC(N)C(=O)O)C(O)C1O` (stereo not given) [S-ADENOSYLHOMOCYSTEINE] reads 3.08 min; that for `O=c1c(-c2ccc(O)cc2)coc2cc(O)ccc12` [DAIDZEIN], 5.4 min.
Regarding `CC1NCCc2cc(O)c(O)cc21` (stereo not given) [SALSOLINOL], the LC retention time is 2.56 min.
The result for `CC1CNC(=O)NC1=O` (stereo not given) [DIHYDROTHYMINE] reads 1.26 min; that for `CC(C)=CCCC(C)=CCC1=C(C)C(=O)c2ccccc2C1=O` [MENAQUINONE], 10.8 min; that for `CC(C(=O)O)c1ccc(O)cc1` (stereo not given) [4-HYDROXYPHENYL-2-PROPIONIC ACID], 5.12 min.
`CC(C)(COP(=O)(O)OP(=O)(O)OCC1OC(n2cnc3c(N)ncnc32)C(O)C1O)C(O)C(=O)NCCC(=O)NCCS` (stereo not given) [DEPHOSPHO-COA]: the LC retention time is 3.69 min.
On to `O=C(O)CNC(=O)c1cccc(O)c1` [3-HYDROXYHIPPURIC ACID], for which the LC retention time is 3.03 min.
The result for `NCCc1ccc(O)cc1` [TYRAMINE] reads 2.81 min; that for `Nc1nc2c(ncn2C2OC(CO)C(O)C2O)c(=O)[nH]1` (stereo not given) [GUANOSINE], 3.37 min.
The result for `CCCCCCCCCC(O)CC(=O)O` (stereo not given) [3-HYDROXYDODECANOIC ACID] reads 7.65 min; that for `CCCCCCCCCCCCCC(O)CC(=O)O` (stereo not given) [3-HYDROXYHEXADECANOIC ACID], 8.7 min.
The result for `OCC1OC(OC2C(CO)OC(OC3C(CO)OC(OC4C(CO)OC(O)C(O)C4O)C(O)C3O)C(O)C2O)C(O)C(O)C1O` (stereo not given) [MALTOTETRAOSE] reads 1.07 min.
Take `CC(=O)NCCc1cnc[nH]1` [N-ACETYLHISTAMINE]: the LC retention time was 0.998 min.
In the case of `Cn1c(=O)[nH]c2nc[nH]c2c1=O` [1-METHYLXANTHINE], the LC retention time is 1.42 min.
The result for `Nc1ncnc2c1ncn2C1OC2COP(=O)(O)OC2C1O` (stereo not given) [CYCLIC AMP] reads 3.35 min.
The result for `O=C(O)C(O)CO` (stereo not given) [GLYCERATE] reads 0.911 min; that for `COC(=O)C=Cc1ccccc1` [METHYL CINNAMATE], 7.95 min.
The result for `CC(=O)N1CCCC1C(=O)O` (stereo not given) [N-ACETYLPROLINE] reads 3.77 min; that for `O=C(O)CCCCCCCO` [8-HYDROXYOCTANOATE], 5.04 min.
As for `CC(=O)OC1CC(=O)OC(C)(C)C2CC(=O)C3(C)C(CCC4(C)C(c5ccoc5)OC(=O)C5OC543)C12C` (stereo not given) [NOMILIN], the LC retention time is 7.05 min.
The result for `Nc1nc2c(ncn2C2CC(O)C(COP(=O)(O)O)O2)c(=O)[nH]1` (stereo not given) [DEOXYGUANOSINE-MONOPHOSPHATE] reads 1.47 min; that for `O=C(O)C1CCCCN1` (stereo not given) [PIPECOLATE], 1.33 min.
The result for `Oc1ccc(C2COc3cc(O)ccc3C2)cc1` (stereo not given) [EQUOL] reads 6.57 min; that for `C=CCSCC(N)C(=O)O` (stereo not given) [S-ALLYLCYSTEINE], 1.22 min; that for `CC1CCC2(C(=O)O)CCC3(C)C(=CCC4C5(C)CC(O)C(O)C(C)(CO)C5C(O)CC43C)C2C1C` (stereo not drawn) [6BETA-HYDROXYASIATIC ACID], 7.04 min.
For the compound `CCC=CCC1C(=O)CCC1CC(=O)OC` (stereo not given) [METHYL JASMONATE], the LC retention time is 7.43 min.
The result for `NC(N)=NCCCC(=O)O` [4-GUANIDINOBUTANOATE] reads 1.35 min.
Turning to `CC(=O)OC(C)(C)C=CC(=O)C(C)(O)C1C(O)CC2(C)C3CC=C4C(CC(O)C(=O)C4(C)C)C3(C)C(=O)CC12C` (stereo not given) [CUCURBITACIN B], the LC retention time is 7.07 min.
`NC(Cc1ccc(O)cc1)C(=O)O` (stereo not given) [TYROSINE]: the LC retention time is 2.44 min.
The result for `O=C(O)C1CCCN1` (stereo not given) [PROLINE] reads 0.916 min.
The result for `COc1cccc(OC)c1C(=O)O` [2,6-DIMETHOXYBENZOIC ACID] reads 4.71 min.

Source of the values: the RepoRT retention time repository.
